According to US6992089B2, “Nitro and amino substituted topoisomerase agents” (Rutgers, The University of New Jersey, priority 2002, dated 2006):
Read-outs that look alike come from different tables or passages of the source. Blank lines part the entries; values can stand above or below the molecule they belong to.

Experiments:
P388 = experiment: MTT cytotoxicity assay, P388; assay type: cell-based; conditions: Mus musculus, P388, 96 h, read-out: Cytotoxicity IC50 P388
Description: (§1) The cytotoxicity was determined using the MTT-microtiter plate tetrazolinium cytotoxicity assay (MTA—See Mosmann, T., J. Immunol. Methods 1983, 65, 55-63; Carmichael, J., et al., Cancer Res. 1987, 47, 936-942; and Denizot, F., et al., J. Immunol. Methods 1986, 89, 271-277). […] The cytotoxicity assay was performed using 96-well microtiter plates. Cells were grown in suspension at 37° C. in 5% CO2 and maintained by regular passage in RPMI medium supplemented with 10% heat-inactivated fetal bovine serum, L-glutamine (2 mM), penicillin (100 U/mL), and streptomycin (0.1 mg/mL). […] For determination of IC50, cells were exposed continuously for 4 days to varying concentrations of drug, and MTT assays were performed at the end of the fourth day. […] All assays were performed at least twice in 6 replicate wells.

P388/CPT45 = experiment: MTT cytotoxicity assay, P388/CPT45; assay type: cell-based; conditions: Mus musculus, P388CPT45, 96 h, read-out: Cytotoxicity IC50 P388/CPT45
Description: as §1

RPMI 8402 = experiment: Test B: MTT-microtiter plate tetrazolinium cytotoxicity assay, RPMI 8402; assay type: cell-based; conditions: Homo sapiens, RPMI 8402, 96 h, read-out: Cytotoxicity IC50 RPMI 8402
Description: as §1

human topoisomerase I = biological target: T1, human topoisomerase I (Homo sapiens, UniProt P11387); experiment: Test A: topoisomerase I-mediated DNA cleavage assay; assay type: biochemical; conditions: concentration relative to topotecan (=1) producing the same cleavage on plasmid DNA in presence of human TOP1
T1 construct: unnamed fusion partner (recombinant fusion protein, T7 expression system); made in house; host or cells: E. coli
T1 sequence (P11387 1-765): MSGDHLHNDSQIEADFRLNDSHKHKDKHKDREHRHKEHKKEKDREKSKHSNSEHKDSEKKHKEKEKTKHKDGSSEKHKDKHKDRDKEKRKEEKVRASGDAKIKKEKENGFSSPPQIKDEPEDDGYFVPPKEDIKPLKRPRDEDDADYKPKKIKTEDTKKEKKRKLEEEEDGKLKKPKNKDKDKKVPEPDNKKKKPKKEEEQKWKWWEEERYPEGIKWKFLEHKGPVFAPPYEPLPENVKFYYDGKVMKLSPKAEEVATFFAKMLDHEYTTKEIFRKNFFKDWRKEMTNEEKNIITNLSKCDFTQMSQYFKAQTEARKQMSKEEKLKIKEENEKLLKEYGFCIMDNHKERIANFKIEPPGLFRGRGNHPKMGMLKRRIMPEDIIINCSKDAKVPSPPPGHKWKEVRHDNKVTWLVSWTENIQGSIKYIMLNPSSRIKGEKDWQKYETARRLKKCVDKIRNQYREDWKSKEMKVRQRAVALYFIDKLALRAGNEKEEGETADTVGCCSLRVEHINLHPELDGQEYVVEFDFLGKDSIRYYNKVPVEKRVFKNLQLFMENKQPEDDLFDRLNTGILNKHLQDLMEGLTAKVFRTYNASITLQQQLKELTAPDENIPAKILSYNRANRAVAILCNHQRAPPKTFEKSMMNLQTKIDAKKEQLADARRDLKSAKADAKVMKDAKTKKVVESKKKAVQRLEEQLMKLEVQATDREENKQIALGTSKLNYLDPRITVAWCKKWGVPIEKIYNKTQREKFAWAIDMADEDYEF
Text: Test A. Topoisomerase-Mediated DNA Cleavage Assays
Human topoisomerase I was expressed in E. Coli and isolated as a recombinant fusion protein using a T7 expression system as described by Gatto, B., et al., Cancer Res. 1996, 56, 2795-2800. Plasmid YepG was purified by the alkali lysis method followed by phenol deproteination and CsCl/ethidium isopycnic centrifugation method as described by Maniatis, T., et al., J. Molecular Cloning, a Laboratory Manual; Cold Spring Harbor Laboratory: Cold Spring Harbor, N.Y. 1982; pp 149-185. The end-labeling of the plasmid was accomplished by digestion with a restriction enzyme followed by end-filling with Klenow polymerase as previously described by Tewey, K. M., et al., Science 1984, 226, 466-468. The cleavage assays were performed as previously reported (see Gatto, B., et al., Cancer Res. 1996, 56, 2795-2800; and Wang, H., et al., Biochemistry 2001, 40; 3316-3323). The drug and the DNA in presence of topoisomerase I was incubated for 30 minutes at 37° C. The reactions were terminated by the addition of 5 μl of 5% SDS and 1 mg/ml […] with an additional 1 hour of incubation at 37° C. Samples were then alkali denatured by the addition of NaOH, EDTA, sucrose, and bromophenol blue to final concentrations of 75 mM, 2.5%, and 0.05 mg/ml, respectively, prior to loading onto a neutral agarose gel. After development of the gels, typically 24-hour exposure was used to obtain autoradiograms outlining the extent of DNA fragmentation.

CPT-K5 = experiment: Test B: MTT-microtiter plate tetrazolinium cytotoxicity assay, CPT-K5 (camptothecin-resistant variant); assay type: cell-based; conditions: Homo sapiens, CPT-K5, 96 h, read-out: Cytotoxicity IC50 CPT-K5
Description: as §1

Structure (SMILES): COc1cc2c(=O)n(CCN(C)C)c3c4ccc([N+](=O)[O-])cc4ncc3c2cc1OC [Compound 3b, 8,9-Dimethoxy-2-nitro-5-[2-(N,N-dimethylamino)ethyl]-5H-dibenzo[c,h][1,6]naphthyridin-6-one]
melting point: 214 to 217 °C
IC50 (P388): 30 nM
IC50 (P388/CPT45): 340 nM
IC50 (RPMI 8402): 75 nM
TOP1-mediated DNA Cleavage (REC, relative effective concentration) (human topoisomerase I): 6
IC50 (CPT-K5): 3350 nM

Structure (SMILES): COc1cc([C@@H]2c3cc4c(cc3[C@@H](O[C@@H]3O[C@@H]5CO[C@@H](c6cccs6)O[C@H]5[C@H](O)[C@H]3O)[C@H]3COC(=O)[C@H]23)OCO4)cc(OC)c1O [VM-26, teniposide, reference compound]
IC50 (CPT-K5): 280 nM

Structure (SMILES): COc1cc2c(=O)n(CCN(C)C)c3c4ccccc4nnc3c2cc1OC [Compound 12b, 11-(2-Dimethylaminoethyl)-2,3-dimethoxy-11H-5,6,11-triazachrysen-12-one, reference compound]
IC50 (RPMI 8402): 18 nM
IC50 (CPT-K5): 1500 nM

Structure (SMILES): COc1cc2c(=O)n(CCN(C)C)c3c4cc([N+](=O)[O-])ccc4ncc3c2cc1OC [Compound 3c, 8,9-Dimethoxy-3-nitro-5-[2-(N,N-dimethylamino)ethyl]-5H-dibenzo[c,h][1,6]naphthyridin-6-one]
melting point: 232 to 234 °C
IC50 (P388): 40 nM
IC50 (P388/CPT45): 200 nM
IC50 (RPMI 8402): 18 nM
TOP1-mediated DNA Cleavage (REC, relative effective concentration) (human topoisomerase I): 2
IC50 (CPT-K5): 800 nM

Structure (SMILES): CC[C@@]1(O)C(=O)OCc2c1cc1n(c2=O)Cc2cc3ccccc3nc2-1 [CPT, Camptothecin, reference compound]
IC50 (P388; 4 days of continuous drug exposure): 9 nM
IC50 (P388/CPT45): > 10000 nM
IC50 (RPMI 8402; 4 days of continuous drug exposure, MTT): 5 nM

Structure (SMILES): COc1cc2c(=O)n(CCN(C)C)c3c4cccc([N+](=O)[O-])c4ncc3c2cc1OC [Compound 3a, 8,9-Dimethoxy-1-nitro-5-[2-(N,N-dimethylamino)ethyl]-5H-dibenzo[c,h][1,6]naphthyridin-6-one]
melting point: 257 to 258 °C
IC50 (P388): 190 nM
IC50 (P388/CPT45): 2100 nM
IC50 (RPMI 8402): 220 nM
TOP1-mediated DNA Cleavage (REC, relative effective concentration) (human topoisomerase I): 9
IC50 (CPT-K5): 3000 nM

Structure (SMILES): COc1cc2c(=O)n(CCN(C)C)c3c(cnc4cccc([N+](=O)[O-])c43)c2cc1OC [Compound 3d, 8,9-Dimethoxy-4-nitro-5-[2-(N,N-dimethylamino)ethyl]-5H-dibenzo[c,h][1,6]-naphthyridin-6-one]
melting point: 194 to 195 °C
IC50 (P388): 6000 nM
IC50 (P388/CPT45): 7000 nM
IC50 (RPMI 8402): 5500 nM
TOP1-mediated DNA Cleavage (REC, relative effective concentration) (human topoisomerase I): >300
IC50 (CPT-K5): 11500 nM

Structure (SMILES): COc1cc2c(=O)n(CCN(C)C)c3c4cccc(N)c4ncc3c2cc1OC [Compound 4a, 1-Amino-8,9-dimethoxy-5-[2-(N,N-dimethylamino)ethyl]-5H-dibenzo[c,h][1,6]naphthyridin-6-one]
melting point: 226 to 229 °C
IC50 (P388): 350 nM
IC50 (P388/CPT45): 210 nM
IC50 (RPMI 8402): 650 nM
TOP1-mediated DNA Cleavage (REC, relative effective concentration) (human topoisomerase I): 100
IC50 (CPT-K5): 2000 nM

More lines, main results first:

melting point: 239 to 241 °C
TOP1-mediated DNA Cleavage (REC, relative effective concentration) (human topoisomerase I): >300
Structure (SMILES): COc1cc2c(=O)n(CCN(C)C)c3c(cnc4cccc(N)c43)c2cc1OC [Compound 4d, 4-Amino-8,9-dimethoxy-5-[2-(N,N-dimethylamino)ethyl]-5H-dibenzo[c,h][1,6]-naphthyridin-6-one]
IC50 (P388): 3000 nM
IC50 (P388/CPT45): 3500 nM
IC50 (RPMI 8402): 4000 nM
IC50 (CPT-K5): 8000 nM

TOP1-mediated DNA Cleavage (REC, relative effective concentration) (human topoisomerase I): 10
Structure (SMILES): COc1cc2c(=O)n(CCN(C)C)c3c4ccccc4ncc3c2cc1OC [Compound 5, 8,9-Dimethoxy-5-[2-(N,N-dimethylamino)ethyl]-5H-dibenzo[c,h]1,6-naphthyridin-6-one, reference compound]
IC50 (P388): 70 nM
IC50 (P388/CPT45): 300 nM
IC50 (RPMI 8402): 100 nM
IC50 (CPT-K5): 1650 nM

melting point: 208 to 210 °C
TOP1-mediated DNA Cleavage (REC, relative effective concentration) (human topoisomerase I): 12
Structure (SMILES): COc1cc2c(=O)n(CCN(C)C)c3c4ccc(N)cc4ncc3c2cc1OC [Compound 4b, 2-Amino-8,9-dimethoxy-5-[2-(N,N-dimethylamino)ethyl]-5H-dibenzo[c,h][1,6]naphthyridin-6-one]
IC50 (P388): 60 nM
IC50 (P388/CPT45): 230 nM
IC50 (RPMI 8402): 100 nM
IC50 (CPT-K5): 2100 nM

melting point: 262 to 264 °C (dec.)
Structure (SMILES): COc1cc2c(=O)n(CCN(C)C)c3c4cc([N+](=O)[O-])ccc4nnc3c2cc1OC [Compound 12a, 11-(2-Dimethylaminoethyl)-2,3-dimethoxy-9-nitro-11H-5,6,11-triazachrysen-12-one]
IC50 (RPMI 8402): 3 nM
IC50 (CPT-K5): 3300 nM

melting point: 213 to 215 °C
TOP1-mediated DNA Cleavage (REC, relative effective concentration) (human topoisomerase I): 6
Structure (SMILES): COc1cc2c(=O)n(CCN(C)C)c3c4cc(N)ccc4ncc3c2cc1OC [Compound 4c, 3-Amino-8,9-dimethoxy-5-[2-(N,N-dimethylamino)ethyl]-5H-dibenzo[c,h][1,6]naphthyridin-6-one]
IC50 (P388): 20 nM
IC50 (P388/CPT45): 330 nM
IC50 (RPMI 8402): 40 nM
IC50 (CPT-K5): 1350 nM

TOP1-mediated DNA Cleavage (REC, relative effective concentration) (human topoisomerase I): 1
Structure (SMILES): CC[C@@]1(O)C(=O)OCc2c1cc1n(c2=O)Cc2cc3c(CN(C)C)c(O)ccc3nc2-1 [Topotecan, reference compound]
IC50 (P388): 35 nM
IC50 (P388/CPT45): > 10000 nM
IC50 (CPT-K5): > 50000 nM
